This is an account of results in PubChem BioAssay AID328 (DTP/NCI, 2004).

Each structure is given as a SMILES string. “And” between values parts separate entries of the source, which are not always exact repeats. Identical values can stand only once. Toxic doses and inconclusive results are not listed.

The assay concerns BDF1 mice, P388 leukemia ip, median survival T/C. The assay is described as follows: NCI In Vivo Anticancer Drug Screen. Data for tumor model P388 Leukemia (intraperitoneal) in B6D2F1 (BDF1) mice. The conditions noted are these: endpoint: median survival time, higher = longer survival. The procedure, abridged:
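Vehicle-dosed animals serve as the reference; survival of compound-dosed, tumour-implanted mice is divided by it.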

Where [1] appears, read: dose: 25.0 mg/kg/injection, schedule: Q01DX009 (ip), vehicle: saline with Tween-80.
The mark [2] stands for this setting: dose: 50.0 mg/kg/injection, schedule: Q01DX009 (ip), vehicle: saline with Tween-80.
[3] abbreviates: dose: 100.0 mg/kg/injection, schedule: Q01DX009 (ip), vehicle: saline with Tween-80.
[4] abbreviates: dose: 100.0 mg/kg/injection, schedule: Q04DX003 (ip), vehicle: Klucel (hydroxypropylcellulose) (HPC).
Setting [5] is: dose: 200.0 mg/kg/injection, schedule: Q01DX009 (ip), vehicle: Klucel (hydroxypropylcellulose) (HPC).
Setting [6] is: dose: 200.0 mg/kg/injection, schedule: Q04DX003 (ip), vehicle: Klucel (hydroxypropylcellulose) (HPC).
The mark [7] stands for this setting: dose: 400.0 mg/kg/injection, schedule: Q04DX003 (ip), vehicle: Klucel (hydroxypropylcellulose) (HPC).
Setting [8] is: dose: 50.0 mg/kg/injection, schedule: Q04DX003 (ip), vehicle: saline.
The mark [9] stands for this setting: dose: 200.0 mg/kg/injection, schedule: Q01DX009 (ip), vehicle: saline with Tween-80.
[10] abbreviates: dose: 100.0 mg/kg/injection, schedule: Q04DX003 (ip), vehicle: saline with Tween-80.
The mark [11] stands for this setting: dose: 200.0 mg/kg/injection, schedule: Q04DX003 (ip), vehicle: saline with Tween-80.
Setting [12] is: dose: 400.0 mg/kg/injection, schedule: Q04DX003 (ip), vehicle: saline with Tween-80.

Turning to `Cc1ccc(N)c(Br)c1`, the T/C under setting [1] was 100 % of control, the T/C under setting [2] is 109 % of control and the T/C under setting [3] was 118 % of control.

`COC(=O)c1c(Cl)c(Cl)c(Cl)c(Cl)c1C(=O)O`: the T/C under setting [2] was 110 % of control.

On to `CSc1nc2[nH]cnc(=S)c2[nH]1`, for which the T/C by setting is: (dose: 6.25 mg/kg/injection, schedule: Q01DX009 (ip), vehicle: saline with Tween-80) 104 % of control; (dose: 12.5 mg/kg/injection, schedule: Q01DX009 (ip), vehicle: saline with Tween-80) 104 % of control; under setting [1], 100 % of control.

For `CC(=O)O[C@H]1CC[C@H]2[C@@H]3CC[C@H]4C[C@@H]5[C@H](C[C@]4(C)[C@H]3CC[C@]12C)C5(F)F`, the T/C was 100 % of control (dose: 3.12 mg/kg/injection, schedule: Q04DX003 (ip), vehicle: Klucel (hydroxypropylcellulose) (HPC)); 88 % of control (dose: 6.25 mg/kg/injection, schedule: Q01DX009 (ip), vehicle: Klucel (hydroxypropylcellulose) (HPC)); 100 % of control (dose: 6.25 mg/kg/injection, schedule: Q04DX003 (ip), vehicle: Klucel (hydroxypropylcellulose) (HPC)); 92 % of control (dose: 12.5 mg/kg/injection, schedule: Q01DX009 (ip), vehicle: Klucel (hydroxypropylcellulose) (HPC)); 100 % of control (dose: 12.5 mg/kg/injection, schedule: Q04DX003 (ip), vehicle: Klucel (hydroxypropylcellulose) (HPC)); 100 % of control (dose: 25.0 mg/kg/injection, schedule: Q01DX009 (ip), vehicle: Klucel (hydroxypropylcellulose) (HPC)). In addition, under setting [4], the T/C is 100 % of control.

Take `Cc1cc(N(c2c(Cl)c(Cl)c(NS(=O)(=O)c3ccccc3)c(Cl)c2Cl)S(=O)(=O)c2ccccc2)cc(C)c1N`: the T/C under setting [4] was 96 % of control; the T/C under setting [5] is 92 % of control; the T/C under setting [6] is 96 % of control; the T/C (dose: 400.0 mg/kg/injection, schedule: Q01DX009 (ip), vehicle: Klucel (hydroxypropylcellulose) (HPC)) is 96 % of control; the T/C under setting [7] is 88 % of control.

For `Cc1cc(C)c(NC(=O)N(CCCl)N=O)cc1C`, the T/C was 110 % of control (dose: 20.0 mg/kg/injection, schedule: Q01DX009 (ip), vehicle: other); 100 % of control (dose: 45.0 mg/kg/injection, schedule: Q01DX009 (ip), vehicle: other); 122 % of control (dose: 50.0 mg/kg/injection, schedule: Q01DX009 (ip), vehicle: other); 105 % of control under setting [2]; 108 % of control under setting [8]; 150 % of control (dose: 65.0 mg/kg/injection, schedule: Q01DX009 (ip), vehicle: other). Besides, the T/C reads like this: under setting [3], 105 % of control; (dose: 100.0 mg/kg/injection, schedule: Q04DX003 (ip), vehicle: saline) 108 % of control; (dose: 200.0 mg/kg/injection, schedule: Q01DX009 (ip), vehicle: other) 122 % of control; under setting [9], 105 % of control; (dose: 200.0 mg/kg/injection, schedule: Q04DX003 (ip), vehicle: saline) 95 % of control.

With `CC(C)CCCBr`, the T/C is, setting by setting: under setting [3], 118 % of control; under setting [10], 108 % of control; under setting [9], 113 % of control; under setting [11], 112 % of control; (dose: 400.0 mg/kg/injection, schedule: Q01DX009 (ip), vehicle: saline with Tween-80) 122 % of control; under setting [12], 108 % of control.

For `C=C1C(=O)O[C@H]2[C@H]1[C@H](OC(=O)/C(C)=C\C)C[C@]1(CO1)[C@@H]1[C@H](OC(C)=O)C=C(C)[C@]21O`, the T/C runs as follows: (dose: 10.0 mg/kg/injection, schedule: Q01DX010 (ip), vehicle: steriod suspending solution) 100 % of control; (dose: 20.0 mg/kg/injection, schedule: Q01DX010 (ip), vehicle: steriod suspending solution) 109 % of control; (dose: 40.0 mg/kg/injection, schedule: Q01DX010 (ip), vehicle: steriod suspending solution) 118 % of control.

Take `CCCCCCCCCCCCNC(=O)c1ccc[n+](C)c1`: the T/C was 118 % of control (dose: 6.25 mg/kg/injection, schedule: Q01DX009 (ip), vehicle: saline); 109 % of control (dose: 12.5 mg/kg/injection, schedule: Q01DX009 (ip), vehicle: saline); 113 % of control (dose: 25.0 mg/kg/injection, schedule: Q01DX009 (ip), vehicle: saline).

In the case of `CCOC(=O)C1(C)CCCCC1=O` (centres undefined), the T/C under setting [10] was 95 % of control, the T/C under setting [11] was 104 % of control and the T/C under setting [12] was 100 % of control.

For the compound `Cc1cc(=O)c2cccc(C)c2[nH]1`, the T/C (dose: 50.0 mg/kg/injection, schedule: Q01DX009 (ip), vehicle: Klucel (hydroxypropylcellulose) (HPC)) is 96 % of control; the T/C (dose: 100.0 mg/kg/injection, schedule: Q01DX009 (ip), vehicle: Klucel (hydroxypropylcellulose) (HPC)) was 96 % of control; the T/C under setting [4] was 95 % of control; the T/C under setting [5] was 92 % of control; the T/C under setting [6] was 91 % of control.

Turning to `S=P(NCCS)(N1CC1)N1CC1`, the T/C runs as follows: under setting [1], 95 % of control; under setting [2], 122 % of control; under setting [3], 109 % of control.

With `O=C1CCCCCC1Cc1cc(O)c(CC2CCCCCC2=O)cc1O` (centres undefined), the T/C is 96 % of control under setting [2] and 97 % of control under setting [9].

As for `CC(=O)OC1CCC2(C)C(CCC3(C)C2CC=C2C4C(C)C(C)CCC4(C)CCC23C)C1(C)C` (centres undefined), the T/C under setting [4] is 100 % of control, the T/C under setting [6] is 100 % of control and the T/C under setting [7] was 90 % of control.

For the compound `CCOC(=O)C1c2cccc(O)c2C=CN1C(C)=O` (centres undefined), the T/C is, setting by setting: under setting [10], 91 % of control; under setting [11], 91 % of control; under setting [12], 95 % of control.

As for `Clc1ccc2c(c1)nnn2OC1CCCCC1`, the T/C is, setting by setting: under setting [2], 88 % of control; under setting [3], 92 % of control; under setting [9], 90 % of control.

Take `CCCCCn1c(C)cc(/C=C\c2ccc3cc(C)ccc3[n+]2C)c1C`: the T/C is, setting by setting: (dose: 0.22 mg/kg/injection, schedule: Q01DX009 (ip), vehicle: saline) 105 % of control and 109 % of control; (dose: 0.33 mg/kg/injection, schedule: Q01DX009 (ip), vehicle: saline) 95 % of control and 110 % of control; (dose: 0.5 mg/kg/injection, schedule: Q01DX009 (ip), vehicle: saline) 109 % of control; (dose: 0.5 mg/kg/injection, schedule: Q04DX003 (ip), vehicle: saline) 118 % of control; (dose: 0.75 mg/kg/injection, schedule: Q01DX009 (ip), vehicle: saline) 90 % of control; (dose: 0.88 mg/kg/injection, schedule: Q04DX003 (ip), vehicle: saline) 108 % of control. Also, the T/C reads like this: (dose: 1.0 mg/kg/injection, schedule: Q04DX003 (ip), vehicle: saline) 120 % of control; (dose: 1.32 mg/kg/injection, schedule: Q04DX003 (ip), vehicle: saline) 112 % of control; (dose: 1.5 mg/kg/injection, schedule: Q01DX009 (ip), vehicle: saline) 90 % of control; (dose: 2.0 mg/kg/injection, schedule: Q04DX003 (ip), vehicle: saline) 104 % of control and 120 % of control; (dose: 3.0 mg/kg/injection, schedule: Q04DX003 (ip), vehicle: saline) 116 % of control.

Take `CCC1=C(C)C(=O)C2CCCCC2C1=O` (centres undefined): the T/C is, setting by setting: (dose: 100.0 mg/kg/injection, schedule: Q04DX003 (ip), vehicle: saline sonified) 100 % of control; (dose: 200.0 mg/kg/injection, schedule: Q04DX003 (ip), vehicle: saline sonified) 100 % of control; (dose: 400.0 mg/kg/injection, schedule: Q04DX003 (ip), vehicle: saline sonified) 100 % of control.

As to `CCOC(=O)C1(C)CCCC1=O` (centres undefined), the T/C is, setting by setting: (dose: 12.5 mg/kg/injection, schedule: Q04DX003 (ip), vehicle: saline) 100 % of control; (dose: 25.0 mg/kg/injection, schedule: Q04DX003 (ip), vehicle: saline) 95 % of control; under setting [8], 90 % of control.

For the compound `O/N=C(\c1ccccc1)C(c1ccccc1)C(Cl)(Cl)Cl` (centres undefined), the T/C was 100 % of control under setting [4], 100 % of control under setting [6] and 100 % of control under setting [7].
